Numbers after ± are expanded uncertainties.
Conditions: 101.33 kPa, Liquid; for viscosity: Falling or rolling sphere viscometry; for speed of sound: Sing-around technique in a fixed-path interferometer; for mass density: Vibrating tube method

CCC(=O)[O-].C[NH+]1CCCC1=O [N-methyl-2-oxopyrrolidinium propionate]
Conditions	mass density [kg/m3]	speed of sound [m/s]	viscosity [mPa·s]
293.15 K	1032.46 ± 0.9	1460.3 ± 2.3	3.136 ± 0.04
298.15 K	1027.86 ± 0.89	1442.6 ± 2.3	2.801 ± 0.036
303.15 K	1023.32 ± 0.89	1424.5 ± 2.3	2.518 ± 0.032
308.15 K	1018.74 ± 0.88	1406.4 ± 2.3	2.28 ± 0.03
313.15 K	1014.16 ± 0.87	1388.4 ± 2.3	2.075 ± 0.027
318.15 K	1009.56 ± 0.86	1370.6 ± 2.3	1.9 ± 0.025
323.15 K	1004.97 ± 0.85	1352.8 ± 2.3	1.75 ± 0.024
328.15 K	1000.36 ± 0.84	1335.1 ± 2.3	1.619 ± 0.022
333.15 K	995.75 ± 0.83	1317.5 ± 2.3	1.506 ± 0.021
338.15 K	991.12 ± 0.83	1300 ± 2.3	1.407 ± 0.02
343.15 K	986.49 ± 0.82	1282.6 ± 2.3	1.32 ± 0.019

CCCCC(=O)[O-].C[NH+]1CCCC1=O [N-methyl-2-oxopyrrolidinium pentanoate]
Conditions	mass density [kg/m3]	speed of sound [m/s]	viscosity [mPa·s]
293.15 K	994.31 ± 0.83	1427.7 ± 2.3	4.448 ± 0.056
298.15 K	990.01 ± 0.83	1410.5 ± 2.3	3.91 ± 0.05
303.15 K	985.7 ± 0.82	1393 ± 2.3	3.465 ± 0.044
308.15 K	981.38 ± 0.82	1375.4 ± 2.3	3.093 ± 0.039
313.15 K	977.06 ± 0.81	1358 ± 2.3	2.779 ± 0.036
318.15 K	972.73 ± 0.81	1340.7 ± 2.3	2.513 ± 0.032
323.15 K	968.39 ± 0.8	1323 ± 2.3	2.284 ± 0.03
328.15 K	964.05 ± 0.8	1305.7 ± 2.3	2.087 ± 0.028
333.15 K	959.71 ± 0.79	1288.7 ± 2.3	1.917 ± 0.026
338.15 K	955.36 ± 0.79	1271.8 ± 2.3	1.769 ± 0.024
343.15 K	951.01 ± 0.78	1255 ± 2.3	1.64 ± 0.022

CCCCCC(=O)[O-].C[NH+]1CCCC1=O [N-methyl-2-oxopyrrolidinium hexanoate]
Conditions	mass density [kg/m3]	speed of sound [m/s]	viscosity [mPa·s]
293.15 K	983.01 ± 0.82	1431.4 ± 2.3	5.211 ± 0.066
298.15 K	978.81 ± 0.81	1414.2 ± 2.3	4.549 ± 0.058
303.15 K	974.6 ± 0.81	1396.7 ± 2.3	3.998 ± 0.051
308.15 K	970.39 ± 0.8	1379.3 ± 2.3	3.543 ± 0.045
313.15 K	966.18 ± 0.8	1362 ± 2.3	3.163 ± 0.04
318.15 K	961.96 ± 0.79	1344.8 ± 2.3	2.843 ± 0.036
323.15 K	957.74 ± 0.79	1327.6 ± 2.3	2.57 ± 0.033
328.15 K	953.51 ± 0.78	1310.6 ± 2.3	2.336 ± 0.03
333.15 K	949.28 ± 0.78	1293.7 ± 2.3	2.135 ± 0.028
338.15 K	945.04 ± 0.77	1276.8 ± 2.3	1.96 ± 0.026
343.15 K	940.79 ± 0.77	1260.2 ± 2.3	1.808 ± 0.024

C[NH+]1CCCC1=O.O=C[O-] [N-methyl-2-oxopyrrolidinium formate]
Conditions	mass density [kg/m3]	speed of sound [m/s]	viscosity [mPa·s]
293.15 K	1076.38 ± 1	1496 ± 2.3	2.451 ± 0.032
298.15 K	1071.66 ± 0.99	1478.3 ± 2.3	2.217 ± 0.029
303.15 K	1066.93 ± 0.98	1460.4 ± 2.3	2.02 ± 0.027
308.15 K	1062.2 ± 0.97	1442.5 ± 2.3	1.85 ± 0.025
313.15 K	1057.45 ± 0.96	1424.8 ± 2.3	1.705 ± 0.023
318.15 K	1052.71 ± 0.95	1407.2 ± 2.3	1.58 ± 0.022
323.15 K	1047.96 ± 0.94	1389.7 ± 2.3	1.472 ± 0.021
328.15 K	1043.2 ± 0.93	1372.2 ± 2.3	1.377 ± 0.02
333.15 K	1038.43 ± 0.92	1354.8 ± 2.3	1.295 ± 0.019
338.15 K	1033.66 ± 0.91	1337.6 ± 2.3	1.223 ± 0.018
343.15 K	1028.88 ± 0.9	1320.5 ± 2.3	1.159 ± 0.017

CCCC(=O)[O-].C[NH+]1CCCC1=O [N-methyl-2-oxopyrrolidinium butanoate]
Conditions	mass density [kg/m3]	speed of sound [m/s]	viscosity [mPa·s]
293.15 K	1010.56 ± 0.86	1435.6 ± 2.3	3.996 ± 0.051
298.15 K	1006.11 ± 0.85	1418 ± 2.3	3.526 ± 0.045
303.15 K	1001.65 ± 0.84	1400.1 ± 2.3	3.136 ± 0.04
308.15 K	997.18 ± 0.83	1382.2 ± 2.3	2.809 ± 0.036
313.15 K	992.71 ± 0.83	1364.4 ± 2.3	2.531 ± 0.033
318.15 K	988.24 ± 0.82	1346.7 ± 2.3	2.295 ± 0.03
323.15 K	983.74 ± 0.82	1328.5 ± 2.3	2.093 ± 0.028
328.15 K	979.25 ± 0.81	1311 ± 2.3	1.918 ± 0.026
333.15 K	974.76 ± 0.81	1293.5 ± 2.3	1.771 ± 0.024
338.15 K	970.26 ± 0.8	1276.3 ± 2.3	1.639 ± 0.022
343.15 K	965.75 ± 0.8	1259.1 ± 2.3	1.527 ± 0.021

CC(=O)[O-].C[NH+]1CCCC1=O [N-methyl-2-oxopyrrolidinium acetate]
Conditions	mass density [kg/m3]	speed of sound [m/s]	viscosity [mPa·s]
293.15 K	1050.71 ± 0.94	1491.5 ± 2.3	2.933 ± 0.037
298.15 K	1046.06 ± 0.93	1473.5 ± 2.3	2.622 ± 0.034
303.15 K	1041.42 ± 0.92	1455.1 ± 2.3	2.364 ± 0.031
308.15 K	1036.77 ± 0.91	1436.9 ± 2.3	2.144 ± 0.028
313.15 K	1032.12 ± 0.9	1418.7 ± 2.3	1.959 ± 0.026
318.15 K	1027.46 ± 0.89	1400.6 ± 2.3	1.799 ± 0.024
323.15 K	1022.79 ± 0.88	1382.6 ± 2.3	1.66 ± 0.023
328.15 K	1018.12 ± 0.87	1364.7 ± 2.3	1.54 ± 0.021
333.15 K	1013.44 ± 0.86	1346.9 ± 2.3	1.435 ± 0.02
338.15 K	1008.75 ± 0.86	1329.2 ± 2.3	1.344 ± 0.019
343.15 K	1004.05 ± 0.85	1311.5 ± 2.3	1.264 ± 0.018
